Structures are written as SMILES.

The subject of one assay is Rec-1 cells. The assay is described as follows: Anti-proliferation Assay (MTS), Rec-1 cells. Format: cell-based. The following applies: Homo sapiens, Rec1, treated for 72 hours, MTS cell survival. Here is the method:
(§1) Cell survival is determined by a MTS assay. Briefly, cells (i.e., TMD-8 cells or Rec-1 cells) are plated in a 96-well plate, cultured in complete growth medium, and then treated with various drugs and drug combinations. MTS/PMS is added and incubated, followed by assessment of cell viability using the microplate reader. Data is normalized to untreated controls and analyzed with Microsoft Excel.
(§2) Cell survival was determined by the MTS assay. Briefly, cells (i.e., TMD-8 cells or Rec-1 cells) were plated in a 96-well plate at 2,000-10,000 cells per well, cultured for 24 hours in complete growth medium, and then treated with various drugs and drug combinations for 72 hours. MTS/PMS was added and incubated for 4 hour, followed by assessment of cell viability using the microplate reader (absorbance at 490 nm). Data were normalized to untreated controls and analyzed with Microsoft Excel.

In a further assay the test system is TMD-8 cells. The assay is described as follows: Anti-proliferation Assay (MTS), TMD-8 cells. It counts as cell-based. Conditions: Homo sapiens, TMD8, treated for 72 hours, MTS cell survival. The procedure: as §1, §2

Regarding `O=C(c1ccc(Oc2ccccc2)cc1Cl)c1c[nH]c2ncnc(N[C@@H]3CC[C@@H](CO)OC3)c12` [Compound (I), (2-chloro-4-phenoxyphenyl)(4-(((3R,6S)-6-(hydroxymethyl)tetrahydro-2H-pyran-3-yl)amino)-7H-pyrrolo[2,3-d]pyrimidin-5-yl)methanone], the figures for the 50% inhibitory concentration (IC50) with Rec-1 cells and in the assay with TMD-8 cells were 180 ± 70 nM and 130 ± 60 nM, respectively.
